As a reminder, the IC50 is the concentration needed to halve the response being measured. A lower IC50 goes with inhibition by little substance.

Test [1] concerns the target PIK3CA (human) (UniProt P42336). Description: Assessment of PIK3CA Kinase Activity.
For test [2], the target named is PIK3CB (Human) (UniProt P42338). Description: Assessment of PIK3CB Kinase Activity.
In test [3] the target is PIK3CG (human) (UniProt P48736). Description: Assessment of PIK3CG Kinase Activity.
The target in test [4] is PIK3CD (Human) (UniProt O00329). Description: Assessment of PIK3CD Kinase Activity.
Sequence of PIK3CD (Human) (O00329 whole entry, looked up): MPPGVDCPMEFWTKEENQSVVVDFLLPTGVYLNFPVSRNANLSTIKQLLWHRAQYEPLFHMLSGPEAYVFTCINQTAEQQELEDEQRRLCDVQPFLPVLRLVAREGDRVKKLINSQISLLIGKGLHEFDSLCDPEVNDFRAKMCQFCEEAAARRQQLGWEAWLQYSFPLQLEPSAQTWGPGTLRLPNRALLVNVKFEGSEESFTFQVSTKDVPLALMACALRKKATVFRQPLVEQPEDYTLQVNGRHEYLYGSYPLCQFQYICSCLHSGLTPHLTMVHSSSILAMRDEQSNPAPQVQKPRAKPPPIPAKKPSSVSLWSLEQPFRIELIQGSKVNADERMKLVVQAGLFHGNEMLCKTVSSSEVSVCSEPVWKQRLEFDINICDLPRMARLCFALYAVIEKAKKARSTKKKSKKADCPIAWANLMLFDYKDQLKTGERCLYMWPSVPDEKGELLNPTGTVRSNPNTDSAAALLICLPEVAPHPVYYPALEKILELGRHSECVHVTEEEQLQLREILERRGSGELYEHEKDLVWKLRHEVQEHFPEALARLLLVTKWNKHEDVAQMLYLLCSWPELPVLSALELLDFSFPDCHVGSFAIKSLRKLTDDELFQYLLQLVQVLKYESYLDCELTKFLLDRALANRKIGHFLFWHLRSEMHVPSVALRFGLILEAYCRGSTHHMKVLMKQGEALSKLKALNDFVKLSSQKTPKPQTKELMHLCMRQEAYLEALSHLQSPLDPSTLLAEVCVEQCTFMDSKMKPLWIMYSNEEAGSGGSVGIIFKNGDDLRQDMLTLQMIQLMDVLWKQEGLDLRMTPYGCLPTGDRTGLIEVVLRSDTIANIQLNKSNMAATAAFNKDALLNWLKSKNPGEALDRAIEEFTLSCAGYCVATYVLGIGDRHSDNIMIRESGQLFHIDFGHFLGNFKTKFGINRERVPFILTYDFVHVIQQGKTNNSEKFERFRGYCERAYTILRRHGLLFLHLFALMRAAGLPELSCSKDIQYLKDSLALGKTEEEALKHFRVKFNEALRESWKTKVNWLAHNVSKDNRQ

Sequence of PIK3CB (Human) (P42338 whole entry, looked up): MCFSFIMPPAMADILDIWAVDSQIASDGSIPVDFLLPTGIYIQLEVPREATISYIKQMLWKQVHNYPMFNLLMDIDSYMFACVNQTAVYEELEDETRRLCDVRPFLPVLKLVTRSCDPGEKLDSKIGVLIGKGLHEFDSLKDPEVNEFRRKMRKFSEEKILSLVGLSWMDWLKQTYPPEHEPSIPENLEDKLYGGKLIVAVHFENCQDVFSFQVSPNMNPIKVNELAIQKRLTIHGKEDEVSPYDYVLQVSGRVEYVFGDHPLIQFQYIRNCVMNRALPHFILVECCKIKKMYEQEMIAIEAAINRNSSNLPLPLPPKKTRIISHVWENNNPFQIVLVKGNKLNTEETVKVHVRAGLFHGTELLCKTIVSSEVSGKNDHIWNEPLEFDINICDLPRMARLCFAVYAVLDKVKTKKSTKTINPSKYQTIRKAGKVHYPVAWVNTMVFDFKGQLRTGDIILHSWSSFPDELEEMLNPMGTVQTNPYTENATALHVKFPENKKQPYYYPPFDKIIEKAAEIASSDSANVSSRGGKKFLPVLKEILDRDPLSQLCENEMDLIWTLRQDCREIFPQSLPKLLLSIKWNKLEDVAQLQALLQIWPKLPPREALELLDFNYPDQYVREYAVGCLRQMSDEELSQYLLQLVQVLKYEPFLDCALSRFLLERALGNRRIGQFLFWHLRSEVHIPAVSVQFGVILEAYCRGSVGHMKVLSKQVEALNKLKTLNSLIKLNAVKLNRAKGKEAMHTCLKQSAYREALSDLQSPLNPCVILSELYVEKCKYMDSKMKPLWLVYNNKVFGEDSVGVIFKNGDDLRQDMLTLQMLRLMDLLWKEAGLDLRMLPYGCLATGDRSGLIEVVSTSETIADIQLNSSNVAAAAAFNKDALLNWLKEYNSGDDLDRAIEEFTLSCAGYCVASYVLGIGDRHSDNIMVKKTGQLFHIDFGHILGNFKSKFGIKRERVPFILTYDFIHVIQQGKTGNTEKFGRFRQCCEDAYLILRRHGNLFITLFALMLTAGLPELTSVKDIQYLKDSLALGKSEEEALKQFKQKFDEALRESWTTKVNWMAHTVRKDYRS
Sequence of PIK3CG (human) (P48736 whole entry, looked up): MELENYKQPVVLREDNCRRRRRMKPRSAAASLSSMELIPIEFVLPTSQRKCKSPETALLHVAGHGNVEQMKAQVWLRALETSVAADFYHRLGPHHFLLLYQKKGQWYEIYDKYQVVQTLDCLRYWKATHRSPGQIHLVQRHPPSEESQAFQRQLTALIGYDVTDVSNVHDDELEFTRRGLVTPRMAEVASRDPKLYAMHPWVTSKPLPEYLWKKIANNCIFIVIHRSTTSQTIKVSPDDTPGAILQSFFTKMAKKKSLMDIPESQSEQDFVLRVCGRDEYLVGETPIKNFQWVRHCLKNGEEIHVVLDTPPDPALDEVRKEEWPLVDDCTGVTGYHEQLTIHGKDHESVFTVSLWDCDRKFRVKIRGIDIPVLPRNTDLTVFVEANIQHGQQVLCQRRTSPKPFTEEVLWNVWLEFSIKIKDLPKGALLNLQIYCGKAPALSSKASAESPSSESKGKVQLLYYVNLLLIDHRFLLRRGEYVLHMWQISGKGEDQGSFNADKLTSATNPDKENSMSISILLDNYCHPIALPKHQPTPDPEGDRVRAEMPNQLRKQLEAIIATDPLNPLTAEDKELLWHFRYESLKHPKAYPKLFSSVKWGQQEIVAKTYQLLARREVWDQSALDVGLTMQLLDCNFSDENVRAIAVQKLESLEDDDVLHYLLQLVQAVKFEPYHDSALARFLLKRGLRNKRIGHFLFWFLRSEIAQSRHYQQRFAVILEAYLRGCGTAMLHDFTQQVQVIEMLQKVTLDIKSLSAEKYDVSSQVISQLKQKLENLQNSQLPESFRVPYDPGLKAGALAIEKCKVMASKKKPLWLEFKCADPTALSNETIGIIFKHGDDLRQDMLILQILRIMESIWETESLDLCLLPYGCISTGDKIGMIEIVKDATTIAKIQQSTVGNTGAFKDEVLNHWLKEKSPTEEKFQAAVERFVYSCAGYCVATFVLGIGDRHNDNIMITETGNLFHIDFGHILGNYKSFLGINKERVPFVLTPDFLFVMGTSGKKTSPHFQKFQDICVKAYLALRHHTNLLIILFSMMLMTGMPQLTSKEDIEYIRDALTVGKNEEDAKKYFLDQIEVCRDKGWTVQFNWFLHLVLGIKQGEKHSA
Sequence of PIK3CA (human) (P42336 whole entry, looked up): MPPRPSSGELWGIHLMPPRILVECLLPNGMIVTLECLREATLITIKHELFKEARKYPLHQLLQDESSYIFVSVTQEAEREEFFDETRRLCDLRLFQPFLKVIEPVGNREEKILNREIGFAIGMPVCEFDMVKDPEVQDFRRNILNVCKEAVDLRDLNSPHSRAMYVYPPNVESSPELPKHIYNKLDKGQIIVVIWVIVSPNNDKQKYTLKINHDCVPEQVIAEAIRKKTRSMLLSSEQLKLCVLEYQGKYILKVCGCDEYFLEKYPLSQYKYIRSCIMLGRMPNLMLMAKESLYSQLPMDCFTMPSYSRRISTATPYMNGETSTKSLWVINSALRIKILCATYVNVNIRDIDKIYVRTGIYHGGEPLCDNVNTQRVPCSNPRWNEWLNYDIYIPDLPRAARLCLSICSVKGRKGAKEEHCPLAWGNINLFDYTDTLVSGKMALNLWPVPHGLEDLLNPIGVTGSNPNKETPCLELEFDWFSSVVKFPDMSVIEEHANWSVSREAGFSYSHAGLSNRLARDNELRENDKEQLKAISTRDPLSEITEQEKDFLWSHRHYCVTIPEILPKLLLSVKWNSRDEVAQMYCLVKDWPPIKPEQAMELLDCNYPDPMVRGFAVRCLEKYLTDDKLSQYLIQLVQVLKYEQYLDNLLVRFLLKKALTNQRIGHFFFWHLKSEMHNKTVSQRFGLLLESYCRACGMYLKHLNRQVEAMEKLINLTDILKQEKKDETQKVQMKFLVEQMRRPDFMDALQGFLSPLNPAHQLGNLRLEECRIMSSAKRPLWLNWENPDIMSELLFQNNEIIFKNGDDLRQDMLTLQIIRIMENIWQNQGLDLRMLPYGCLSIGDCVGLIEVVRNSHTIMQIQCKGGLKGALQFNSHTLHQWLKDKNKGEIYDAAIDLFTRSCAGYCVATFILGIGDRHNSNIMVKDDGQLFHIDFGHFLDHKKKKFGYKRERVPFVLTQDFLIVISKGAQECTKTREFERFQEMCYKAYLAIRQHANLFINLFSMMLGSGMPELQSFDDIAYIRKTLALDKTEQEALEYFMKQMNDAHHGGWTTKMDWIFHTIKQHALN

Turning to `O=C(NO)c1cnc(N(CCO)Cc2cc3nc(-c4cccc5[nH]ncc45)nc(N4CCOCC4)c3s2)nc1`, the IC50 in test [1] and in test [2] was less than 100 nM each time.
Take `O=C(NO)c1cnc(NCc2cc3nc(-c4cccc5[nH]ncc45)nc(N4CCOCC4)c3s2)nc1`: the 50% inhibitory concentration (IC50) in test [1], in test [2], in test [3] and in test [4] was less than 100 nM throughout.
`O=C(NO)c1cnc(N2CCN(Cc3cc4nc(-c5cccc6[nH]ncc56)nc(N5CCOCC5)c4s3)CC2)nc1`: the IC50 in test [1] is less than 100 nM; in test [2], less than 100 nM; in test [3] it was less than 100 nM; in test [4], 100 to 1000 nM.
Take `CN(C)c1ccc(-c2nc(N3CCOCC3)c3sc(CN(C)c4ncc(C(=O)NO)cn4)cc3n2)cn1`: the concentration for half-maximal inhibition (IC50) in test [1] was in the range of 100 to 1000 nM.
`Cn1cc(CNc2cc3nc(-c4cccc5[nH]ncc45)nc(N4CCOCC4)c3s2)c2cc(C(=O)NO)ccc21`: in test [1], the half-maximal inhibitory concentration (IC50) is less than 100 nM.
The molecule `CC(=O)NCCN(Cc1cc2nc(-c3cccc4[nH]ncc34)nc(N3CCOCC3)c2s1)c1ncc(C(=O)NO)cn1` gave an IC50 in test [1] of less than 100 nM.
Turning to `CN(Cc1cc2nc(-c3cnc(N)nc3)nc(N3CCOCC3)c2s1)c1ncc(C(=O)NO)cn1`, in test [1], the IC50 was less than 100 nM.
On the same count and under the same terms, the value for `CN(Cc1cc2nc(-c3cccc(N)c3)nc(N3CCOCC3)c2s1)c1ncc(C(=O)NO)cn1` was 100 to 1000 nM.
On to `CN(Cc1cc2nc(-c3cccc4[nH]ncc34)nc(N3CCOCC3)c2s1)c1ncc(C(=O)NO)cn1`, for which the IC50 in test [1], in test [2], in test [3] and in test [4] was less than 100 nM throughout.
As to `CCc1ncc(-c2nc(N3CCOCC3)c3sc(CN(C)c4ncc(C(=O)NO)cn4)cc3n2)cn1`, the IC50 in test [1] is less than 100 nM.
Same read-out and setting: the figure for `COc1cccc(-c2nc(N3CCOCC3)c3sc(CN(C)c4ncc(C(=O)NO)cn4)cc3n2)c1` is 100 to 1000 nM; for `O=C(C=Cc1ccc(CNCc2cc3nc(-c4cccc5[nH]ncc45)nc(N4CCOCC4)c3s2)cc1)NO` it is 100 to 1000 nM; for `Cc1ncc(-c2nc(N3CCOCC3)c3sc(CN(C)c4ncc(C(=O)NO)cn4)cc3n2)cn1` it is less than 100 nM.
Still for that read-out and setting: the figure for `CN(Cc1cc2nc(-c3cccc4[nH]ncc34)nc(Nc3ccccc3)c2s1)c1ncc(C(=O)NO)cn1` is less than 100 nM; for `O=C(NO)c1cnc(N2CCN(S(=O)(=O)c3cc4nc(-c5cccc6[nH]ncc56)nc(N5CCOCC5)c4s3)CC2)nc1` it is less than 100 nM.
The same measure, in the same setting: the value for `O=C(CCCCNc1cc2nc(-c3cccc4[nH]ncc34)nc(N3CCOCC3)c2s1)NO` was 100 to 1000 nM; that for `O=C(O)CN(Cc1cc2nc(-c3cccc4[nH]ncc34)nc(N3CCOCC3)c2s1)c1ncc(C(=O)NO)cn1` was less than 100 nM.
On to `CN(Cc1cc2nc(-c3cccc4[nH]ncc34)nc(N3CCOCC3)c2s1)c1ccc(C(=O)NO)cc1`, for which the half-inhibitory concentration (IC50) in test [1] is less than 100 nM.
On the same count and under the same terms, the figure for `CN(Cc1cc2nc(-c3ccc4[nH]cnc4c3)nc(N3CCOCC3)c2s1)c1ncc(C(=O)NO)cn1` is less than 100 nM; for `CN(Cc1cc2nc(-c3cn[nH]c3)nc(N3CCOCC3)c2s1)c1ncc(C(=O)NO)cn1` it is 100 to 1000 nM.
Still for that read-out and setting: the value for `O=C(CCCCCNc1cc2nc(-c3cccc4[nH]ncc34)nc(N3CCOCC3)c2s1)NO` was 100 to 1000 nM.
Same read-out and setting: the figure for `CC(c1cc2nc(-c3cccc4[nH]ncc34)nc(N3CCOCC3)c2s1)N(C)c1ncc(C(=O)NO)cn1` (stereo not given) is less than 100 nM; for `Cc1ccc(-c2nc(N3CCOCC3)c3sc(CN(C)c4ncc(C(=O)NO)cn4)cc3n2)cc1` it is 100 to 1000 nM; for `O=C(NO)c1cnc(N(CCCO)Cc2cc3nc(-c4cccc5[nH]ncc45)nc(N4CCOCC4)c3s2)nc1` it is less than 100 nM.
In test [1], `COC(=O)CN(Cc1cc2nc(-c3cccc4[nH]ncc34)nc(N3CCOCC3)c2s1)c1ncc(C(=O)NO)cn1` displayed an IC50 of less than 100 nM.

Source of the values: the Kinase Knowledgebase extract (Sharma et al. 2016).
